EC50 data for 37 compounds are collected here from patent US20120095024A1, “TOLUIDINE SULFONAMIDES AND THEIR USE” (Elara Pharmaceuticals GmbH, priority 2008, published 2012).

For orientation: EC50 means the concentration needed to bring the measured effect to its halfway point. The low end stands for a more potent agent, the high end for a less potent agent.

This experiment relates to MCF7 cells. The experiment is described as follows: Cell proliferation assay (ATPlite), MCF-7. The class given is cell-based, human. The following applies: Homo sapiens, inhibition of cell proliferation, 72 h. As to the method: MCF-7 human breast adenocarcinoma cells and HL-60 acute promyelocytic leukaemia cells were obtained from ATCC (LGC Promochem). HG-1 multiple myeloma cells were obtained from Dr. D. Hose (DKFZ Heidelberg). The CellSensor® HRE-bla HCT116 cell line (colorectal carcinoma) was obtained from Invitrogen.
Cells were grown under humidified 95% air, 5% CO2 at 37° C. in Dulbecco's modified Eagle's medium (DMEM: MCF-7) or RPMI 1640 medium (RPMI: HL-60, HG-1) supplemented with 10% fetal bovine serum (FBS), 100 U/ml penicillin and 100 μg/ml streptomycin, 2 mM L-glutamine, and 2 ng/ml IL-6 (for the HG-1 cell line only). The HCT116 cell line was grown under the same atmospheric conditions in McCoy's 5A medium supplemented with 10% FBS and penicillin/streptomycin as above, in addition to blasticidin as a selection marker at a final concentration of 5 μg/ml.
Cell proliferation experiments were carried out in 96-well tissue culture plates with seeding of 2000 cells/well (MCF-7) or 1000 cells/well (HL-60, HG-1) in 100 μl of the relevant medium. Cells were subsequently incubated under the conditions mentioned for 24 h prior to addition of compounds.
For the determination of compound EC50 values, 10 μl compounds at 11× concentrations in 5.5% DMSO were added to the wells at various concentrations yielding a final constant percentage of 0.5% DMSO at the desired 1× compound concentration. As a positive control, cells were treated with 5.5% DMSO. The cells were then incubated for a further 72 h prior to the measurement.
To determine the degree of inhibition of cell proliferation, cells were treated with ATPlite solution according to the manufacturer's instructions (PerkinElmer, ATPlite 1-step Luminescence ATP Detection Assay System) and luciferase readout measured on an Envision HTS multilabel plate reader (PerkinElmer) in luminescence mode according to established protocols. Raw data were imported into an ActivityBase database (IDBS, ID Business Solutions) and EC50 values calculated using the IDBS program ActivityBase XE. Table 2A and 2B show the IC50 values obtained in the above-outlined cell proliferation assay for exemplary compounds of the invention.

SMILES strings stand for the structures.

Compound `Cc1ccc(S(=O)(=O)Nc2cc(-c3nnn[nH]3)ccc2C)cc1` [Example 1, 4-Methyl-N-[2-methyl-5-(1H-tetrazol-5-yl)-phenyl]-benzenesulfonamide] yielded a half-maximal effective concentration (EC50) of 1 to 10 µM.
The figure for `Cc1ccc(S(=O)(=O)Nc2cc(-n3cnnn3)ccc2C)cc1` [Example 2, 4-Methyl-N-(2-methyl-5-tetrazol-1-yl-phenyl)-benzenesulfonamide] is 1 to 10 µM.
Regarding `Cc1ccc(S(=O)(=O)Nc2cc(-c3nnn(C)n3)ccc2C)cc1` [Example 6, 4-Methyl-N-[2-methyl-5-(2-methyl-2H-tetrazol-5-yl)-phenyl]-benzenesulfonamide], the EC50 fell in the range of 1 to 10 µM.
`Cc1ccc(S(=O)(=O)Nc2cc(-c3cccc(C)c3)ccc2C)cc1` [Example 7, N-(4,3′-Dimethyl-biphenyl-3-yl)-4-methyl-benzenesulfonamide]: the EC50 was 0.5 to 1 µM.
`COc1cccc(-c2ccc(C)c(NS(=O)(=O)c3ccc(C)cc3)c2)n1` [Example 9, N-[5-(6-Methoxy-pyridin-2-yl)-2-methyl-phenyl]-4-methyl-benzenesulfonamide] came in with an EC50 of 0.5 to 1 µM.
The figure for `Cc1ccc(-c2ccc(C)c(NS(=O)(=O)c3ccc(C)cc3)c2)cc1` [Example 10, N-(4,4′-Dimethyl-biphenyl-3-yl)-4-methyl-benzenesulfonamide] is 1 to 10 µM.
In the case of `Cc1ccc(S(=O)(=O)Nc2cc(-c3sc(C)nc3C)ccc2C)cc1` [Example 12, N-[5-(2,4-Dimethyl-thiazol-5-yl)-2-methyl-phenyl]-4-methyl-benzenesulfonamide], the concentration giving a half-maximal response (EC50) was under 0.5 µM.
The compound `COc1ccc(S(=O)(=O)Nc2cc(-c3cc(C)sc3C)ccc2C)cc1` [Example 13, N-[5-(2,5-Dimethyl-thiophen-3-yl)-2-methyl-phenyl]-4-methoxy-benzenesulfonamide] had a concentration for a half-maximal effect (EC50) of 1 to 10 µM.
Regarding `COc1ccc(S(=O)(=O)Nc2cc(-c3ccsc3)ccc2C)cc1` [Example 14, 4-Methoxy-N-(2-methyl-5-thiophen-3-yl-phenyl)-benzenesulfonamide], the EC50 is under 0.5 µM.
The figure for `COc1ccc(S(=O)(=O)Nc2cc(-c3ccsc3C)ccc2C)cc1` [Example 17, 4-Methoxy-N-[2-methyl-5-(2-methyl-thiophen-3-yl)-phenyl]-benzenesulfonamide] is under 0.5 µM; for `COc1ccc(-c2ccc(C)c(NS(=O)(=O)c3ccc(C)cc3)c2)cn1` [Example 18, N-[5-(6-Methoxy-pyridin-3-yl)-2-methyl-phenyl]-4-methyl-benzenesulfonamide] it is 1 to 10 µM; for `COc1ccc(S(=O)(=O)Nc2cc(-c3cnco3)ccc2C)cc1` [Example 20, 4-Methoxy-N-(2-methyl-5-oxazol-5-yl-phenyl)-benzenesulfonamide] it is under 0.5 µM.
The figure for `COc1ccc(S(=O)(=O)Nc2cc(-n3cccc3)ccc2C)cc1` [Example 21, 4-Methoxy-N-(2-methyl-5-pyrrol-1-yl-phenyl)-benzenesulfonamide] is under 0.5 µM; for `Cc1ccc(S(=O)(=O)Nc2cc(-c3sccc3C)ccc2C)cc1` [Example 24, 4-Methyl-N-[2-methyl-5-(3-methyl-thiophen-2-yl)-phenyl]-benzenesulfonamide] it is under 0.5 µM; for `Cc1ccc(S(=O)(=O)Nc2cc(-c3ccoc3C)ccc2C)cc1` [Example 25, 4-Methyl-N-[2-methyl-5-(2-methyl-furan-3-yl)-phenyl]-benzenesulfonamide] it is under 0.5 µM.
`COc1cccnc1-c1ccc(C)c(NS(=O)(=O)c2ccc(C)cc2)c1` [Example 26, N-[5-(3-Methoxy-pyridin-2-yl)-2-methyl-phenyl]-4-methyl-benzenesulfonamide] displayed an EC50 of 1 to 10 µM.
The result for `Cc1ccc(S(=O)(=O)Nc2cc(-c3ncccc3C(F)(F)F)ccc2C)cc1` [Example 27, 4-Methyl-N-[2-methyl-5-(3-trifluoromethyl-pyridin-2-yl)-phenyl]-benzenesulfonamide] reads 1 to 10 µM; that for `Cc1ccc(S(=O)(=O)Nc2cc(-c3ncccc3C)ccc2C)cc1` [Example 28, 4-Methyl-N-[2-methyl-5-(3-methyl-pyridin-2-yl)-phenyl]-benzenesulfonamide], 1 to 10 µM; that for `Cc1ccc(S(=O)(=O)Nc2cc(-n3c(C)ccc3C)ccc2C)cc1` [Example 29, N-[5-(2,5-Dimethyl-pyrrol-1-yl)-2-methyl-phenyl]-4-methyl-benzenesulfonamide], 1 to 10 µM.
The figure for `COc1ccc(S(=O)(=O)Nc2cc(-n3ccc(C)n3)ccc2C)cc1` [Example 30, 4-Methoxy-N-[2-methyl-5-(3-methyl-pyrazol-1-yl)-phenyl]-benzenesulfonamide] is under 0.5 µM.
Consider `Cc1ccc(S(=O)(=O)Nc2cc(-c3cc(C)ccn3)ccc2C)cc1` [Example 31, 4-Methyl-N-[2-methyl-5-(4-methyl-pyridin-2-yl)-phenyl]-benzenesulfonamide], for which the EC50 lay within 1 to 10 µM.
For the compound `Cc1ccc(S(=O)(=O)Nc2cc(-c3ccc(C)cn3)ccc2C)cc1` [Example 32, 4-Methyl-N-[2-methyl-5-(5-methyl-pyridin-2-yl)-phenyl]-benzenesulfonamide], the EC50 was 1 to 10 µM.
The figure for `Cc1ccc(S(=O)(=O)Nc2cc(-c3cccc(C)n3)ccc2C)cc1` [Example 33, 4-Methyl-N-[2-methyl-5-(6-methyl-pyridin-2-yl)-phenyl]-benzenesulfonamide] is 0.5 to 1 µM.
The figure for `Cc1ccc(S(=O)(=O)Nc2cc(-c3cncc(C#N)c3)ccc2C)cc1` [Example 34, N-[5-(5-Cyano-pyridin-3-yl)-2-methyl-phenyl]-4-methyl-benzenesulfonamide] is under 0.5 µM; for `COc1cncc(-c2ccc(C)c(NS(=O)(=O)c3ccc(C)cc3)c2)c1` [Example 35, N-[5-(5-Methoxy-pyridin-3-yl)-2-methyl-phenyl]-4-methyl-benzenesulfonamide] it is 1 to 10 µM.
`COc1cc(C)c(-c2ccc(C)c(NS(=O)(=O)c3ccc(C)cc3)c2)cn1` [Example 36, N-[5-(6-Methoxy-4-methyl-pyridin-3-yl)-2-methyl-phenyl]-4-methyl-benzenesulfonamide] showed an EC50 of 1 to 10 µM.
For the compound `CCOc1ccc(-c2ccc(C)c(NS(=O)(=O)c3ccc(C)cc3)c2)cn1` [Example 37, N-[5-(6-Ethoxy-pyridin-3-yl)-2-methyl-phenyl]-4-methyl-benzenesulfonamide], the EC50 fell in the range of 1 to 10 µM.
In turn, `Cc1ccc(S(=O)(=O)Nc2cc(-c3cc(C(F)(F)F)ccn3)ccc2C)cc1` [Example 38, 4-Methyl-N-[2-methyl-5-(4-trifluoromethyl-pyridin-2-yl)-phenyl]-benzenesulfonamide] yielded a concentration giving a half-maximal response (EC50) of 1 to 10 µM.
The result for `Cc1ccc(S(=O)(=O)Nc2cc(-c3cccc(C(F)(F)F)n3)ccc2C)cc1` [Example 39, 4-Methyl-N-[2-methyl-5-(6-trifluoromethyl-pyridin-2-yl)-phenyl]-benzenesulfonamide] reads 0.5 to 1 µM; that for `COc1ccc(S(=O)(=O)Nc2cc(-n3cc(C)cc3C)ccc2C)cc1` [Example 40, N-[5-(2,4-Dimethyl-pyrrol-1-yl)-2-methyl-phenyl]-4-methoxy-benzenesulfonamide], 1 to 10 µM; that for `COc1ccc(S(=O)(=O)Nc2cc(-n3cccc3C#N)ccc2C)cc1` [Example 41, N-[5-(2-Cyano-pyrrol-1-yl)-2-methyl-phenyl]-4-methoxy-benzenesulfonamide], 0.5 to 1 µM.
The result for `CC(=O)c1cccc(-c2ccc(C)c(NS(=O)(=O)c3ccc(C)cc3)c2)n1` [Example 42, N-[5-(6-Acetyl-pyridin-2-yl)-2-methyl-phenyl]-4-methyl-benzenesulfonamide] reads 0.5 to 1 µM; that for `COc1ccc(-c2ccc(C)c(NS(=O)(=O)c3ccc(C)cc3)c2)nc1` [Example 44, N-[5-(5-Methoxy-pyridin-2-yl)-2-methyl-phenyl]-4-methyl-benzenesulfonamide], under 0.5 µM; that for `Cc1ccc(S(=O)(=O)Nc2cc(-c3ccc(C(F)(F)F)cn3)ccc2C)cc1` [Example 45, 4-Methyl-N-[2-methyl-5-(5-trifluoromethyl-pyridin-2-yl)-phenyl]-benzenesulfonamide], 1 to 10 µM.
The figure for `Cc1ccc(S(=O)(=O)Nc2cc(-c3ccc(F)c(C)n3)ccc2C)cc1` [Example 46, N-[5-(5-Fluoro-6-methyl-pyridin-2-yl)-2-methyl-phenyl]-4-methyl-benzenesulfonamide] is 0.5 to 1 µM; for `Cc1ccc(S(=O)(=O)Nc2cc(-c3c(C)noc3C)ccc2C)cc1` [Example 48, N-[5-(3,5-Dimethyl-isoxazol-4-yl)-2-methyl-phenyl]-4-methyl-benzenesulfonamide] it is under 0.5 µM; for `COc1ccc(S(=O)(=O)Nc2cc(-n3cccc3C)ccc2C)cc1` [Example 50, 4-Methoxy-N-[2-methyl-5-(2-methyl-pyrrol-1-yl)-phenyl]-benzenesulfonamide] it is under 0.5 µM.
